The source of these data is PMC9421654, “Discovery of Substituted Di(pyridin-2-yl)-1,2,4-thiadiazol-5-amines as Novel Macrofilaricidal Compounds for the Treatment of Human Filarial Infections” (Journal of Medicinal Chemistry, 2022).

Data set [1] deals with THLE-2 cells. The experiment in a line: THLE-2 cytotoxicity assay (ATP). Particulars: Homo sapiens, THLE-2, 24 h, read-out: THLE IC50. An outline of the steps:
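THLE-2 cells in supplemented LHC-8 medium were exposed for 24 or 72 h to final concentrations of 0.01–300 μM. Viability was read as ATP by CellTiter-Glo luminescence and normalized to DMSO vehicle. IC50 came from nonlinear regression of dose-response curves.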

The nature of data set [2]: Liver S9 metabolic stability assay, rat. Format: in vitro ADME. Particulars: 3 μM, 60 min. The essentials:
(§1)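 Rat and human liver S9 (0.75 and 1.2 mg/ml) with 1 mM NADPH, 0.5 mM UDPGA, 2.5 mM GSH, 0.05 mg/ml PAPS, 3µM substrate, 60 min at 37 °C in Tris/MgCl2 pH 7.4. Mouse microsomes 0.3 mg/mL, 1 mM NADPH, 3µM, 30 min, phosphate pH 7.4. LC-MS/MS, % remaining, triplicate.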

The nature of data set [3]: Mouse pharmacokinetics. Format: in vivo. Particulars: male CD-1 mouse, PO 30 mg/kg suspension. The source says:
All animal experiments were approved by the Institutional Animal Care and Use Committee (IACUC) of Bristol Myers Squibb.

Data set [4] has as its system O. gutturosa adult male worms. The experiment in a line: O. gutturosa adult worm ex vivo assay, motility. Particulars: Onchocerca gutturosa, read-out: O. gutturosa EC50 μM (SD), ex vivo adult worm motility reduction; SD in brackets. It is filed as cell-based, Onchocerca gutturosa. An outline of the steps: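 Adult male O. gutturosa from naturally infected cattle were cultured in supplemented MEM at 37 °C, 5% CO2, with four worms per concentration in serial 1-in-4 dilutions. Motility (0–10 scale) was scored every 24 h to 120 h. EC50 (geomean, n=2) for motility reduction came from 4PL fits, and viability was checked by MTT at 120 h.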

A short description of data set [5]: Liver S9 metabolic stability assay, human. It is filed as in vitro ADME. Particulars: 3 μM, 60 min. The essentials:
as §1

The subject of data set [6] is O. gutturosa adult male worms. As to the kind of experiment: O. gutturosa adult worm ex vivo assay, MTT/formazan viability. The settings on record: Onchocerca gutturosa, supplement; SD in brackets in the PDF table; read-out: O. gutturosa EC50 (uM) MTT viability inhibition. It is filed as cell-based, Onchocerca gutturosa. An outline of the steps:
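Adult male worms from naturally infected Gambian cattle were kept individually in MEM with 10% newborn calf serum at 37 °C, 5% CO2; four worms per concentration. Motility was scored 0-10 every 24 h to 120 h as a percentage of maximum, with ≥50% reduction versus untreated counted active. Afterwards, MTT (0.5 mg/mL, 30 min) formazan was read at 490 nm.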

Data set [7] relates to L. sigmodontis adult worms. On the set-up: method as in PMID 35834918. Particulars: infected mice; cited from earlier work.

With `COc1ccc(Nc2nc(-c3ccccn3)cs2)nc1` [Compound 1], the IC50 in data set [1] was found to be 72.4 µM. For the same compound, the “Rat S9 metabolic stability” value in data set [2] came out at 51 % remaining. Further, in data set [3], the “AUC(0-inf)” value came out at 1.58 ± 0.27 µM·h, the Cmax is 690 ± 180 nM and the Tmax stood at 30 ± 0 min. Moreover, the EC50 in data set [4] turned out to be 0.27 µM. The “Human S9 metabolic stability” value in data set [5] worked out at 59 % remaining. The concentration giving a half-maximal response (EC50) in data set [6] turned out to be 0.94 µM. Also, in data set [7], the “reduction of adult L. sigmodontis worms” value is recorded as 68%.
